Measured values as given in article PMC9502953 (Molecules, 2022).

Assays:
[1] = cited from earlier work; for DPPH^• removal IC50 (literature): 50 (in order of compounds); for IC50 values for comparison (radical scavenging; assay not given, paragraph on DPPH): 53 (in order of compounds)
[2] = parameters: method as in ref 47, 48, 3, 53, 49, 48, 12, 53, 50 (in order of compounds); conditions: 50 (in order of compounds); cited from earlier work
[3] = parameters: method as in ref 12, 43, 3, 44, 45, 46 (in order of compounds); conditions: similar quantities; 46 (in order of compounds); cited from earlier work
[4] = parameters: method as in ref 12, 3, 47, 48, 49, 50 (in order of compounds); conditions: same concentration; 50 (in order of compounds); cited from earlier work
[5] = DMPD radical scavenging (505 nm)
Description: (§1) The DPPH radical scavenging activities were assessed by measuring the absorbance at 517 nm after keeping in the dark for 30 min [81]. […] ABTS solution (7.0 mM) was prepared using K2S2O8 ([…]), and the absorbance of the control was set to 0.700 ± 0.025 at 734 nm on dilution with buffer solution (0.1 M and pH 7.4). […] The control included only ABTS radical solution [82]. […] Briefly, 0.2 mL of FeCl3 (50 mM) and 1 mL of DMPD solution were added to the buffer (pH 5.3, 100 mM). The concentrations of all of the samples were 10–30 μg/mL. The total volume was adjusted to […] using deionized water. An aliquot (1 mL) of DMPD radicals was added, and the absorbance was recorded at 505 nm. The radical scavenging results were expressed as half maximal scavenging concentrations (IC50, μg/mL).

[6] = Fe^3+ reducing ability (K3Fe(CN)6 reduction, absorbance at 700 nm); conditions: 30 μg/mL concentration
Description: (§2) The reaction was terminated by adding 1 mL of trichloroacetic acid (TCA, 10%). Following this, 0.5 mL of newly prepared FeCl3 (0.1%) was transferred, and the absorptions were measured at 700 nm. Deionized water was used as the blank control. […] Finally, after 20 min, absorbances were recorded at 450 nm.

[7] = DPPH radical scavenging (Blois method, 517 nm)
Description: as §1

[8] = ABTS radical scavenging (734 nm)
Description: as §1

[9] = Cu^2+ reducing ability (CUPRAC, neocuproine, absorbance at 450 nm); conditions: 30 μg/mL concentration
Description: as §2

[10] = target: T1, acetylcholinesterase (AChE) (Electrophorus electricus, UniProt O42275); assay: biochemical
T1 construct: purchased Sigma-Aldrich GmbH (Steinheim, Germany)
T1 sequence (O42275 24-633): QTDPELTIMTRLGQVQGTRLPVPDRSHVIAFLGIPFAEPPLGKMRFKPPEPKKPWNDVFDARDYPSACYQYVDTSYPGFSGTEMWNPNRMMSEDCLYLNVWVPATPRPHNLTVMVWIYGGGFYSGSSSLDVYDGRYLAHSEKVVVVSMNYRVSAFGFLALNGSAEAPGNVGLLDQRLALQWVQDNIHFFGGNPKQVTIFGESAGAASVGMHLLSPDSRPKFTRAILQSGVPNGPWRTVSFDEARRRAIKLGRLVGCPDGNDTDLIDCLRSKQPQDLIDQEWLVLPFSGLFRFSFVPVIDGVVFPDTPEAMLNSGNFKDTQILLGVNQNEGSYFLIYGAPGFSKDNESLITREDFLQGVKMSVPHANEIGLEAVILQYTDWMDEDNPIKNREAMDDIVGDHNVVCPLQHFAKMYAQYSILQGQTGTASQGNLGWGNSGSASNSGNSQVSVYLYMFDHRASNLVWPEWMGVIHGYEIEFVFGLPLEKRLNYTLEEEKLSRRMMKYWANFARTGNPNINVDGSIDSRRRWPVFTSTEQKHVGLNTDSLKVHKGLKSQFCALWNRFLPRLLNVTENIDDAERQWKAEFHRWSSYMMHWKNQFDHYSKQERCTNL
Description: AChI and BChI were used as substrates for enzymatic reactions.
(§3) The Ki values and other parameters were calculated from Lineweaver-Burk graphs as described priorly. The Ki values were taken out from this graph. All of the analyses were independently conducted in triplicate, and the results are expressed as mean values ± SD.

[11] = target: T2, human carbonic anhydrase II (hCA II) (Homo sapiens, UniProt P00918); assay: Carbonic anhydrase II inhibition (esterase activity, 348 nm); type: biochemical
T2 construct: from tissue; host or cells: human erythrocytes
Description: The CA II isozyme was purified from human erythrocytes using Sepharose-4B-Tirozyne-sulfanylamide affinity column chromatography. Further, it was precipitated, and the serum was separated and adjusted with solid Tris to pH 8.7. The sample was then loaded to the affinity chromatography column and equilibrated with Tris-Na2SO4/HCl (pH 8.7, 22 mM/25 mM). CA II was eluted with sodium acetate/NaClO4 (0.5 M, pH 5.6, 25 °C). Protein quantity during the purification study was determined using the Bradford method. Bovine serum albumin was used as the standard protein [93]. The purity of CA II was controlled using SDS-PAGE [94]. During purification and inhibition of CA II, esterase activities were performed following the change in absorbance at 348 nm
as §3

Molecule	DPPH^• removal IC50 (literature) [1]	IC50 values for comparison (radical scavenging; assay not given, paragraph on DPPH) [1]	DMPD^•+ removing IC50 (literature) [2]	Fe^3+-reducing absorbance values (previous studies) [3]	Cu^2+-reducing absorbance values (natural phenolics) [4]	DMPD^•+ Scavenging IC50 [5]	Fe^3+ Reducing λ (700 nm) absorbance [6]	DPPH^• Scavenging IC50 [7]	ABTS^•+ Scavenging IC50 [8]	Cu^2+ Reducing λ (450 nm) absorbance [9]	also measured
O=C(/C=C/c1ccc(O)c(O)c1)OCCc1ccccc1 [CAPE, caffeic acid phenethyl ester]	3.30 µg/mL	9.80 µg/mL	26.70 µg/mL	2.509							
L-Adrenaline	30.6 µg/mL	6.93 µg/mL	15.6 µg/mL								
CCCCCc1cc(O)cc(O)c1 [olivetol]	17.77 µg/mL	1.94 µg/mL	19.25 µg/mL		1.314						
Cc1c(C)c2c(c(C)c1O)CC[C@@](C)(CCC[C@H](C)CCC[C@H](C)CCCC(C)C)O2 [α-Tocopherol]						7.11 µg/mL	0.957	11.31 µg/mL	8.73 µg/mL	0.816	
Cc1c(C)c2c(c(C)c1O)CCC(C)(C(=O)O)O2 (centres unmarked) [Trolox]						4.33 µg/mL	2.119	7.059 µg/mL	6.16 µg/mL	1.548	
COc1ccc2c(c1O)-c1c(O)c(OC)cc3c1[C@H](C2)[N+](C)(C)CC3 [Magnofluorine]						15.26 µg/mL	0.967	10.58 µg/mL	27.61 µg/mL	0.458	IC50 [10]: 10 nM; IC50 [11]: 26 nM; Ki ([11]; Lineweaver-Burk graphs, mean ± SD, read-out: Ki CA II): 25.4 ± 1.1 nM
C=CCc1ccc(O)c(OC)c1 [eugenol]	16.06 µg/mL	7.84 µg/mL	10.04 µg/mL		0.762						
O=c1oc2cc(O)ccc2c2oc3cc(O)ccc3c12 [coumestrol]		25.95 µg/mL	12.81 µg/mL	0.739	0.739						
O=C(O)/C=C/c1ccc(O)c(O)c1 [caffeic acid]				2.769							
CC(=O)c1c(O)c(C)c(O)c2c1OC1=CC(=O)C(C(C)=O)C(=O)C12C (centres unmarked) [usnic acid]	49.50 µg/mL	10.41 µg/mL	33.00 µg/mL	0.278	0.277						
tannic acid				2.428							
Cc1cc(C(C)(C)C)c(O)c(C(C)(C)C)c1 [BHT, butylated hydroxytoluene]						8.72 µg/mL	0.952	25.95 µg/mL	6.99 µg/mL	2.044	
O=C1c2c(O)cc(O)cc2OC(c2ccc(O)c(O)c2)C1O (centres unmarked) [taxifolin]	77.00 µg/mL	0.83 µg/mL	173.25 µg/mL		0.750						
O=c1[nH]c(=O)c2[nH]c(=O)[nH]c2[nH]1 [uric acid]				0.432							
COc1ccc(O)c(C(C)(C)C)c1 [BHA, butylated hydroxyanisole]						11.99 µg/mL	2.347	10.10 µg/mL	5.07 µg/mL	2.216	
